The record followed here is patent US7452865B2, “Antagonistic analogs of GH RH (2003)” (The Administrare's of the Tulane Educational Fund, priority 2004, dated 2008).

Square brackets hold non-standard residues; d marks the D form. Peptide text beside a SMILES is read from it. * marks the point of attachment. Phe(4-Cl) = N[C@@H](Cc1ccc(Cl)cc1)C(=O)O; C14 diacid = O=C(O)CCCCCCCCCCCCC(=O)*; HOOC(CH2)6CO = O=C(O)CCCCCCC(=O)*; hArg = N=C(N)NCCCC[C@H](N)C(=O)O; Decanoyl = CCCCCCCCCC(=O)*; Nle = CCCC[C@H](N)C(=O)O; Abu = CC[C@H](N)C(=O)O; PhAc = O=C(Cc1ccccc1)*

In experiment [1] the test system is hGH-RH(1-29)NH2 induced GH release. Put plainly: Inhibition of GH release in superfused rat pituitary system. It counts as cell-based. The following applies: for GH response (% of control) 0 min / GH response (% of control) 30 min / GH response (% of control) 60 min / GH response (% of control) 90 min / GH response (% of control) 120 min: antagonist 30 nM; for GH response (% of control) 0 min: 1 nM hGH-RH(1-29)NH2 at 0 min; for GH response (% of control) 30 min: 1 nM hGH-RH(1-29)NH2 at 30 min; for GH response (% of control) 60 min: 1 nM hGH-RH(1-29)NH2 at 60 min; for GH response (% of control) 90 min: 1 nM hGH-RH(1-29)NH2 at 90 min; for GH response (% of control) 120 min: 1 nM hGH-RH(1-29)NH2 at 120 min. An outline of the steps:
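Dispersed rat pituitary cells in superfusion were preincubated 9 min with analog at various concentrations, then stimulated with 1 nM hGH-RH(1-29)NH2 for 3 min, repeated at 30, 60, 90, 120 min to gauge duration. GH measured by double-antibody RIA; net integrated responses expressed as percent of the initial 1 nM GH-RH response.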

Experiment [2] has as its system GH-RH receptor isoforms on membrane fractions of human PC-3 prostate tumors. In kind it is binding. The following applies: for binding affinities to the tumoral receptors for GH-RH (in words): general statement. An excerpt: Ligand competition assays with ^125I-labeled GH-RH antagonist JV-1-42 were used to determine the binding affinities of GH-RH analogs to the GH-RH receptor isoforms on membrane fractions of human PC-3 prostate tumors. The methods used have been described in detail (Halmos G, Schally A V, Varga J L, Plonowski A, Rekasi Z, Czompoly T, Proc Natl Acad Sci USA 97: 10555-10560, 2000; Halmos G, Schally A V, Czompoly T, Krupa M, Varga J L, Rekasi Z, J Clin Endocrinol Metab 87: 4707-4714, 2002), hereby incorporated by reference. Briefly, radioiodinated derivatives of JV-142 are prepared by the chloramine-T method. PC-3 tumors, grown as xenografts in nude mice, are used to prepare crude membranes. PC-3 membrane homogenates are incubated with [^125I]JV-142 and increasing concentrations (10^−12 to 10^−6 M) of nonradioactive antagonist peptides as competitors. The pellet is separated by centrifugation and counted for radioactivity in a gamma-counter. The final binding affinities are estimated by K1 (dissociation constant of the inhibitor-receptor complex) and are determined by the Ligand PC and McPherson computer programs of Munson and Rodbard (P. J. Munson and D. Rodbard, Anal. Biochem. […]: 220-239, 1980). Relative affinities (R.A.) compared to reference peptides such as JV-1-36 or JV-1-38, are calculated as the ratio of K1 of the reference peptide to the K, of the tested GH-RH antagonist.

Regarding `CCCCCCCCCC(=O)N[C@@H](Cc1ccc(O)cc1)C(=O)N[C@H](CCCNC(=N)N)C(=O)N[C@@H](CC(=O)O)C(=O)N[C@@H](C)C(=O)N[C@H](C(=O)N[C@@H](Cc1ccc(Cl)cc1)C(=O)N[C@H](C(=O)N[C@@H](CC(N)=O)C(=O)N[C@@H](CCCNC(=N)N)C(=O)N[C@@H](Cc1ccc(O)cc1)C(=O)N[C@@H](CCCNC(=N)N)C(=O)N[C@@H](CCCCN)C(=O)N[C@H](C(=O)N[C@@H](CC(C)C)C(=O)N[C@@H](CC)C(=O)N[C@@H](CCC(N)=O)C(=O)N[C@@H](CC(C)C)C(=O)N[C@@H](CO)C(=O)N[C@@H](C)C(=O)N[C@@H](CCCNC(=N)N)C(=O)N[C@@H](CCCCN)C(=O)N[C@@H](CC(C)C)C(=O)N[C@@H](CC(C)C)C(=O)N[C@@H](CCC(N)=O)C(=O)N[C@@H](CC(=O)O)C(=O)N[C@H](C(=O)N[C@@H](CCCC)C(=O)N[C@H](CCCNC(=N)N)C(=O)N[C@@H](CCCCNC(=N)N)C(N)=O)[C@@H](C)CC)C(C)C)[C@@H](C)O)[C@@H](C)CC` [Peptide 6, [CH3(CH2)8CO-Tyr^1, D-Arg^2, Phe(pCl)^6, Arg^9, Abu^15, Nle^27, D-Arg^28, Har^29]hGH-RH(1-29)NH2] (Decanoyl-Y[dR]DAI[Phe(4-Cl)]TNRYRKVL[Abu]QLSARKLLQDI[Nle][dR][hArg]-NH2), in experiment [1], the “GH response (% of control) 0 min” value is listed as 56 % of control, the “GH response (% of control) 30 min” value was 22 % of control, the “GH response (% of control) 60 min” value is 12 % of control and the “GH response (% of control) 90 min” value is 15 % of control. The “GH response (% of control) 120 min” value in experiment [1] is 19 % of control. Further, the “Relative Affinities (R.A.) to membrane receptors on PC-3 human prostate cancers” value (from here on “Relative Affinities”) in experiment [2] was determined as 0.6.
“[CH3(CH2)6CO-Tyr^1, D-Arg^2, Phe(pCl)^6, Ala^8, His^9, Tyr(Et)^10, His^11, Abu^15, Nle^27, D-Arg^28, Har^29]hGH-RH(1-29)NHEt [Peptide 97]”: in experiment [2], the “binding affinities to the tumoral receptors for GH-RH (in words)” value (“binding affinities” below) is listed as “extremely high binding affinities”.
For `CCCC[C@H](NC(=O)[C@@H](NC(=O)[C@H](CC(=O)O)NC(=O)[C@H](CCC(N)=O)NC(=O)[C@H](CC(C)C)NC(=O)[C@H](CC(C)C)NC(=O)[C@H](CCCCN)NC(=O)[C@H](CCCNC(=N)N)NC(=O)[C@H](C)NC(=O)[C@H](CO)NC(=O)[C@H](CC(C)C)NC(=O)[C@H](CCC(N)=O)NC(=O)[C@H](CC)NC(=O)[C@H](CC(C)C)NC(=O)[C@@H](NC(=O)[C@H](CCCCN)NC(=O)[C@H](CCCNC(=N)N)NC(=O)[C@H](Cc1ccc(O)cc1)NC(=O)[C@H](CCCNC(=N)N)NC(=O)[C@H](CC(N)=O)NC(=O)[C@@H](NC(=O)[C@H](Cc1ccc(Cl)cc1)NC(=O)[C@@H](NC(=O)[C@H](C)NC(=O)[C@H](CC(=O)O)NC(=O)[C@@H](CCCNC(=N)N)NC(=O)[C@H](Cc1ccc(O)cc1)NC(=O)CCCCCCCCCCCCC(=O)O)[C@@H](C)CC)[C@@H](C)O)C(C)C)[C@@H](C)CC)C(=O)N[C@H](CCCNC(=N)N)C(=O)N[C@@H](CCCCNC(=N)N)C(N)=O` [Peptide 11, [HOOC(CH2)12CO-Tyr^1, D-Arg^2, Phe(pCl)^6, Arg^9, Abu^15, Nle^27, D-Arg^28, Har^29]hGH-RH(1-29)NH2] ({C14 diacid}-Y[dR]DAI[Phe(4-Cl)]TNRYRKVL[Abu]QLSARKLLQDI[Nle][dR][hArg]-NH2), in experiment [1], the “GH response (% of control) 0 min” value is 14 % of control, the “GH response (% of control) 30 min” value is 24 % of control, the “GH response (% of control) 60 min” value is listed as 29 % of control and the “GH response (% of control) 90 min” value is listed as 34 % of control. For the same molecule, in experiment [1], the “GH response (% of control) 120 min” value is given as 32 % of control. For the same molecule, in experiment [2], the “Relative Affinities” value was determined as 1.3 and the “binding affinities” value is “extremely high binding affinities”.
For `CCCC[C@H](NC(=O)[C@@H](NC(=O)[C@H](CC(=O)O)NC(=O)[C@H](CCC(N)=O)NC(=O)[C@H](CC(C)C)NC(=O)[C@H](CC(C)C)NC(=O)[C@H](CCCCN)NC(=O)[C@H](CCCNC(=N)N)NC(=O)[C@H](C)NC(=O)[C@H](CO)NC(=O)[C@H](CC(C)C)NC(=O)[C@H](CCC(N)=O)NC(=O)[C@H](CC)NC(=O)[C@H](CC(C)C)NC(=O)[C@@H](NC(=O)[C@H](CCCCN)NC(=O)[C@H](CCCNC(=N)N)NC(=O)[C@H](Cc1ccc(O)cc1)NC(=O)[C@H](CCCNC(=N)N)NC(=O)[C@H](CC(N)=O)NC(=O)[C@@H](NC(=O)[C@H](Cc1ccc(Cl)cc1)NC(=O)[C@@H](NC(=O)[C@H](C)NC(=O)[C@H](CC(=O)O)NC(=O)[C@@H](CCCNC(=N)N)NC(=O)[C@H](Cc1ccc(O)cc1)NC(=O)CCCCCCC(=O)O)[C@@H](C)CC)[C@@H](C)O)C(C)C)[C@@H](C)CC)C(=O)N[C@H](CCCNC(=N)N)C(=O)N[C@@H](CCCCNC(=N)N)C(N)=O` [Peptide 5, [HOOC(CH2)6CO-Tyr^1, D-Arg^2, Phe(pCl)^6, Arg^9, Abu^15, Nle^27, D-Arg^28, Har^29]hGH-RH(1-29)NH2] ({HOOC(CH2)6CO}-Y[dR]DAI[Phe(4-Cl)]TNRYRKVL[Abu]QLSARKLLQDI[Nle][dR][hArg]-NH2), in experiment [1], the “GH response (% of control) 0 min” value is on record as 22 % of control, the “GH response (% of control) 30 min” value is listed as 20 % of control, the “GH response (% of control) 60 min” value was 23 % of control and the “GH response (% of control) 90 min” value is 27 % of control. Besides, the “GH response (% of control) 120 min” value in experiment [1] was 27 % of control. Also, in experiment [2], the “Relative Affinities” value was 4 and the “binding affinities” value is given as “extremely high binding affinities”.
Consider `CCCC[C@H](NC(=O)[C@@H](NC(=O)[C@H](CC(=O)O)NC(=O)[C@H](CCC(N)=O)NC(=O)[C@H](CC(C)C)NC(=O)[C@H](CC(C)C)NC(=O)[C@H](CCCCN)NC(=O)[C@H](CCCNC(=N)N)NC(=O)[C@H](C)NC(=O)[C@H](CO)NC(=O)[C@H](CC(C)C)NC(=O)[C@H](CCC(N)=O)NC(=O)[C@H](CC)NC(=O)[C@H](CC(C)C)NC(=O)[C@@H](NC(=O)[C@H](CCCCN)NC(=O)[C@H](CCCNC(=N)N)NC(=O)[C@H](Cc1ccc(OC)cc1)NC(=O)[C@H](Cc1c[nH]cn1)NC(=O)[C@H](CC(N)=O)NC(=O)[C@@H](NC(=O)[C@H](Cc1ccc(Cl)cc1)NC(=O)[C@@H](NC(=O)[C@H](C)NC(=O)[C@H](CC(=O)O)NC(=O)[C@@H](CCCNC(=N)N)NC(=O)[C@H](Cc1ccc(O)cc1)NC(=O)Cc1ccccc1)[C@@H](C)CC)[C@@H](C)O)C(C)C)[C@@H](C)CC)C(=O)N[C@H](CCCNC(=N)N)C(=O)N[C@@H](CCCCNC(=N)N)C(N)=O` [Peptide 69, [PhAc-Tyr^1, D-Arg^2, Phe(pCl)^6, His^9, Tyr(Me)^10, Abu^15, Nle^27, D-Arg^28, Har^29]hGH-RH(1-29)NH2] (PhAc-Y[dR]DAI[Phe(4-Cl)]TNHY(Me)RKVL[Abu]QLSARKLLQDI[Nle][dR][hArg]-NH2), for which, in experiment [1], the “GH response (% of control) 0 min” value was 9 % of control, the “GH response (% of control) 30 min” value is given as 12 % of control, the “GH response (% of control) 60 min” value is 18 % of control and the “GH response (% of control) 90 min” value is reported as 18 % of control. Moreover, the “GH response (% of control) 120 min” value in experiment [1] is listed as 25 % of control. Also, in experiment [1] (general statement, in vitro and in vivo), the “endocrine antagonistic potency: inhibition of the GH release stimulated by hGH-RH(1-29)NH2 (in words)” value is listed as “high endocrine antagonistic potencies”. For the same molecule, in experiment [2], the “binding affinities” value is “extremely high binding affinities”.
